Experiment [1] concerns the target Transient receptor potential cation channel subfamily V member 1 (Homo sapiens, UniProt Q8NER1). Nature of the experiment: FLIPR Assay: The agonistic or antagonistic effect of the substances to be tested on the vanilloid receptor 1 (VR1) can also be determined using the following assay. In this assay, the influx of Ca2+ through the channel is quantified with the aid of a Ca2+-sensitive dye (type Fluo-4, Molecular Probes Europe BV, Leiden, the Netherlands) in a fluorescent imaging plate reader (FLIPR, Molecular Devices, Sunnyvale, USA).Method:Chinese hamster ovary cells (CHO K1 cells, European Collection of Cell Cultures (ECACC) United Kingdom) are stably transfected with the VR1 gene. For functional testing, these cells are plated out on poly-D-lysine-coated black 96-well plates having a clear base (BD Biosciences, Heidelberg, Germany) at a density of 25,000 cells/well. The cells are incubated overnight at 37 C. and 5% CO2 in a culture medium (Ham's F12 nutrient mixture, 10% by volume of FCS (foetal calf serum), 18 ug/ml of L-proline). The next day the cells are incubated with Fluo-4. The class given is cell-based.

For experiment [2], the target named is Transient receptor potential cation channel subfamily V member 1 (Rattus norvegicus, UniProt O35433). Put plainly: FLIPR Assay: The agonistic or antagonistic effect of the substances to be tested on the rat-species vanilloid receptor 1 (VR1/TRPV1) can be determined using the following assay. In this assay, the influx of Ca2+ through the receptor channel is quantified with the aid of a Ca2+-sensitive dye (type Fluo-4, Molecular Probes Europe BV, Leiden, the Netherlands) in a fluorescent imaging plate reader (FLIPR, Molecular Devices, Sunnyvale, USA).Method:Complete medium: 50 ml HAMS F12 nutrient mixture (Gibco Invitrogen GmbH, Karlsruhe, Germany) with10% by volume of FCS (foetal calf serum, Gibco Invitrogen GmbH, Karlsruhe, Germany, heat-inactivated);2 mM L-glutamine (Sigma, Munich, Germany);1% by weight of AA solution (antibiotic/antimyotic solution, PAA, Pasching, Austria) and 25 ng/ml NGF medium (2.5 S, Gibco Invitrogen GmbH, Karlsruhe, Germany).

pKi: −log10 of the molar value.

Transient receptor potential cation channel subfamily V member 1 (Rattus norvegicus, UniProt O35433), sequence (O35433 whole entry): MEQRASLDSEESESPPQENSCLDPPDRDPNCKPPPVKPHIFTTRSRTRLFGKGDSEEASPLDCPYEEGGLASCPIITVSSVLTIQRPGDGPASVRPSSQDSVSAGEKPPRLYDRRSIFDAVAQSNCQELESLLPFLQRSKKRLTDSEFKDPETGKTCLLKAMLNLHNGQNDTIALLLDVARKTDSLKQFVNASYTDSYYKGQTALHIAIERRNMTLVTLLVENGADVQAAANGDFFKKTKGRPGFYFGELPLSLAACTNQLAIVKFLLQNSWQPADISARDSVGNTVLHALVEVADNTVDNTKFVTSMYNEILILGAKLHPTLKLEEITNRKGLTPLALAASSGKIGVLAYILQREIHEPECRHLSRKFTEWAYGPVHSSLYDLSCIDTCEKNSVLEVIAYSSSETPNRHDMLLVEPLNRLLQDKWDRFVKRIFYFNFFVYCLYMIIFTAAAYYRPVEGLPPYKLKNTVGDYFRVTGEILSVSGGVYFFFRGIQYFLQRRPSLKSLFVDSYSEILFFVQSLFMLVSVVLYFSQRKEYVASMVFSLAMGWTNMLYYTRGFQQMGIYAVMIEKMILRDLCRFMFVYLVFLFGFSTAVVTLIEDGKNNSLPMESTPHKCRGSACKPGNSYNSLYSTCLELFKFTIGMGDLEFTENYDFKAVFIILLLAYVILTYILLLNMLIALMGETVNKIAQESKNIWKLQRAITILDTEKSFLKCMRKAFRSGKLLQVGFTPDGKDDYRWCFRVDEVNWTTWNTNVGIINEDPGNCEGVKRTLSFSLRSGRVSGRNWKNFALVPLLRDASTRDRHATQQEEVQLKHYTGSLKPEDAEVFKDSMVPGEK
Transient receptor potential cation channel subfamily V member 1 (Homo sapiens, UniProt Q8NER1), sequence (Q8NER1 whole entry): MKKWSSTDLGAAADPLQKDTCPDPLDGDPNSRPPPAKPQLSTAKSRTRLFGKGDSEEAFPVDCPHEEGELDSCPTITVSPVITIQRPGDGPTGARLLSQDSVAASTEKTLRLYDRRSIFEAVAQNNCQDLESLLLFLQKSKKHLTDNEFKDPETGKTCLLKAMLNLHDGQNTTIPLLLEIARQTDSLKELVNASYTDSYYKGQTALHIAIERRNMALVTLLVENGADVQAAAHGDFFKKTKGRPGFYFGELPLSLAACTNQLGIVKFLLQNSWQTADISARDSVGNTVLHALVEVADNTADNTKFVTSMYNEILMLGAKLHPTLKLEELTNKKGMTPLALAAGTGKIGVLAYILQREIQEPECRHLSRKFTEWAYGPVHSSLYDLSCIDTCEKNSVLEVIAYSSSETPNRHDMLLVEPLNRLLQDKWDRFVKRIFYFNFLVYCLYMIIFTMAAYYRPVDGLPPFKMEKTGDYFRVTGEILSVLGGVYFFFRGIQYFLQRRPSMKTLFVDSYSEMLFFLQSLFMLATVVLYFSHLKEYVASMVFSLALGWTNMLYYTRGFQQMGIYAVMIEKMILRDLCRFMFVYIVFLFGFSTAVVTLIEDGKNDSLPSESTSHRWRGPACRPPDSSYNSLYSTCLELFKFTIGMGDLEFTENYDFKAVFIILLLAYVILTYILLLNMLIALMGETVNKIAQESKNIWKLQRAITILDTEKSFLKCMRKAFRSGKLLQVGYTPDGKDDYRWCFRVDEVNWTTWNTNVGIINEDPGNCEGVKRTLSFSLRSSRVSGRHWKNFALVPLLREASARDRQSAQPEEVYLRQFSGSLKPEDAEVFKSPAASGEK

For the molecule `Cc1ccc(-n2nc(C(C)(C)C)cc2CNC(=O)C(C)c2ccc(NS(C)(=O)=O)c(F)c2)cc1` (configuration not stated), the pKi in experiment [1] is 8.10; in experiment [2], 8.23.

The values are drawn from ChEMBL document CHEMBL3638657, “Substituted phenylureas and phenylamides as vanilloid receptor ligands” (2015).
